Target: ACAT enzyme
Experiment: Measurement of ACAT enzyme inhibitory activity of rabbit small intestinal microsomes
Assay type: biochemical
Settings: rabbit small intestinal mucosa microsome fraction 0.5 mg/ml, 43 µM oleoyl CoA containing [1-14C]oleoyl CoA, 37°C for 10 minutes
Procedure: Measurement of ACAT enzyme inhibitory activity (measurement of ACAT enzyme inhibitory activity of rabbit small intestinal microsomes
Rabbit small intestinal mucosa microsome was prepared and the ACAT enzyme activity was measured by the method of Salone and Field (reference: Biochemica et Biophysica, vol. 712, p. 557 (1982)) with a slight modification.
Using a 40 mM phosphate buffer containing 30 mM EDTA, 50 mM KCl, and 1.0M sucrose and having a pH of 7.4 (buffer A), rabbit small intestinal mucosa was homogenized. This was centrifuged at 10,000 x g and 4°C for 30 minutes to provide a supernatant. The supernatant was further centrifuged at 105,000 x g and 4°C for 1 hour to provide a precipitate. The precipitate was resuspended in the buffer A and used as the microsome fraction.
To the buffer A containing 43 µM bovine serum albumin and 0.5 mg/ml microsome fraction was added various concentrations of each specimen compound (compounds obtained in Examples 1, 3 to 5, and 7 to 14) in dimethylsulfoxide in amounts of 1% v/v. The mixture was heated at 37°C for 5 minutes. […]
0.111 kBq of [^3H] cholesteryl oleate and IN hydrochloric acid were added, and the mixture was stirred. The cholesteryl oleate extracted into the chloroform layer was isolated by a thin layer chromatography, and the radioactivity was measured as the ACAT activity.

IC50: 130 nM
Structure (SMILES): CCCCCCCCCCOc1ccc2c(=O)ccoc2c1NC(=O)C(C)(C)C [Example 8, N-(7-decyloxyl-4-oxo-4H-1-benzopyran8-yl)-2,2-dimethylpropanamide]
